Data as given in the CheMixHub viscosity set.

Assay: xn = mol fraction of the nth substance listed

O=C(O)CCl + CC(C)=O
viscosity [mPa·s], 101 kPa
Conditions	x1 = 0.1359	x1 = 0.1855	x1 = 0.2889	x1 = 0.3789	x1 = 0.4791	x1 = 0.6971	x1 = 0.8145
298.15 K	0.4351	0.5339	0.7329	0.9727	1.345	–	–
308.15 K	0.394	0.4777	0.6435	0.8439	1.131	2.166	–
323.15 K	0.3409	0.4134	0.5393	0.6876	0.9042	1.6	2.123

O=CC(Cl)(Cl)Cl + CC(C)=O
viscosity [mPa·s], 101 kPa
Conditions	x1 = 0.0713	x1 = 0.1371	x1 = 0.2697	x1 = 0.3708	x1 = 0.4723	x1 = 0.5664	x1 = 0.6561	x1 = 0.7731	x1 = 0.8964
298.15 K	0.4048	0.4541	0.5494	0.6015	0.6699	0.7342	0.7924	0.8894	0.9679
308.15 K	0.3678	0.4111	–	0.5376	0.5949	0.6484	0.7021	0.7778	0.8506
323.15 K	0.3231	0.3615	0.4176	0.4606	0.5118	0.554	0.6001	0.6568	0.7107

CCCCCCCCCCCCCCCC + CC(C)CC(C)(C)C
298.15 K
Conditions	viscosity [mPa·s]
101 kPa, x2 = 0.05562	2.82
101 kPa, x2 = 0.1311	2.55
101 kPa, x2 = 0.1971	2.371
101 kPa, x2 = 0.307	1.95
101 kPa, x2 = 0.4264	1.651
101 kPa, x2 = 0.5472	1.337
101 kPa, x2 = 0.6552	1.077
101 kPa, x2 = 0.7341	0.9214
101 kPa, x2 = 0.8043	0.7819
101 kPa, x2 = 0.8275	0.7495
101 kPa, x2 = 0.8768	0.6682
101 kPa, x2 = 0.929	0.5871
101 kPa, x2 = 0.9511	0.5441
101.33 kPa, x1 = 0.101	0.6392
101.33 kPa, x1 = 0.199	0.8143
101.33 kPa, x1 = 0.2987	1.014
101.33 kPa, x1 = 0.4006	1.24
101.33 kPa, x1 = 0.4999	1.489
101.33 kPa, x1 = 0.6004	1.765
101.33 kPa, x1 = 0.7002	2.062
101.33 kPa, x1 = 0.8003	2.391
101.33 kPa, x1 = 0.9001	2.72

O=CC(Cl)(Cl)Cl + CC(C)CCO
313.15 K, 101 kPa
Conditions	viscosity [mPa·s]
x1 = 0.0715	2.825
x1 = 0.2226	4.098
x1 = 0.2851	4.684
x1 = 0.3509	5.476
x1 = 0.4001	6.07
x1 = 0.4335	6.48
x1 = 0.4573	6.923
x1 = 0.4722	6.922
x1 = 0.4823	6.831
x1 = 0.4926	6.751
x1 = 0.5251	6.026
x1 = 0.5576	5.406
x1 = 0.6165	3.935
x1 = 0.7376	2.151
x1 = 0.8868	1.283
